Key:
hippocampal nerve cells = assay: Luminescence (photon count) of probes expressed in cultured hippocampal nerve cells after stimulation; format: cell-based, rat
Method: On day 18 of pregnancy, a rat fetus was taken out of a pregnant rat, and the brain was separated therefrom in cold PBS. Furthermore, brain slices containing hippocampal nerve cells were separated from the cerebrum. The separated hippocampal cells were reacted with 0.125% trypsin (protease) at room temperature for 20 minutes in a test tube such that adhesion factors on the cell surface were degraded to attenuate cell-cell adhesion. Then, the test tube was left standing for trypsin removal. After precipitation of the brain slices in the bottom of the test tube, the trypsin solution as a supernatant was removed by aspiration. Subsequently, a DMEM medium containing 10% serum was added to the test tube. The test tube was left standing again, and the supernatant was removed. The brain slices were dissociated into individual cells by repeating approximately 10 times aspiration and dropping using a plastic dropper. Then, the cells were cultured in a plastic dish.
On culture day 4, the plasmid encoding the fusion protein 1 of Example 1 was gene-transferred into the cells. The gene transfer method was performed using Lipofectamine 2000 in the same way as in the HEK293 cells. Two days after the gene transfer, the medium was replaced by an Opti-MEM medium (Invitrogen Corp.) containing 0.5 mM luciferin EF (Promega Corp.), a luminescent substrate of luciferase. The luminescence intensity was measured using a luminometer AEQUORIA (Hamamatsu Photonics K.K.). This apparatus counts the number of photons generated from cells during culture placed together with a plastic dish in a dark box. The measurement was performed for 1 consecutive hour, and the luminescence intensity at 1-minute intervals was plotted on the ordinate of a graph. Immediately before the measurement, the cells were stimulated with forskolin, glutamate, KCl, or the like.

actin polymerization = assay: Luminescence of IRES-linked split luciferase-actin fusion proteins in HEK293 cells with actin polymerization inhibitor; format: cell-based; conditions: inhibitor added 3 hours before measurement, varying concentrations
Source text: FIG. 7 is a graph showing results of Example 8. The graph depicts the relationship between an actin polymerization inhibitor concentration and luminescence from split luciferase-actin fusion proteins bound via an IRES sequence and expressed in HEK293 cells;
For preparing a form suitable for transgenic mouse preparation, plasmids were constructed for a fusion protein comprising two fusion proteins bound via an IRES sequence (the resultant fusion protein is referred to as a fusion protein 13: LucN-Actin-IRES-LucC-actin). LucC-Actin and LucN-Actin are thereby translated from one mRNA and expressed in cells. The gene transfer was performed in the same way as in Example 1. Moreover, in this experiment, an actin polymerization inhibitor latrunculin A was added into a medium 3 hours before luminescence measurement. Moreover, the luminescence measurement used a luminometer AEQUORIA (Hamamatsu Photonics K.K.).
This is the evidence that the luminescence of the prepared protein serves as an index for actin polymerization.

polymerized actin = assay: Rhodamine-phalloidin staining of polymerized actin in HEK293T cells; format: cell-based; conditions: varying concentrations of inhibitor
Method: FIG. 8 is a photograph showing results of Example 9. The photograph is an image of polymerized actin stained with rhodamine-phalloidin in the presence of varying concentrations of a polymerization inhibitor;
HEK293T cells were treated with latrunculin A and then fixed in 4% paraformaldehyde, and only polymerized actin was stained using F-Actin Visualization Biochem Kit (Cosmo Bio Co., Ltd.).
An image of polymerized actin stained with rhodamine-phalloidin in the presence of varying concentrations of the polymerization inhibitor was confirmed.

Question: With “wild-type luciferase: wild-type firefly luciferase (Promega Corp.), control experiment” as the compound, how does the “response of luminescence to KCl” value (hippocampal nerve cells; probe expressed in nerve cells, KCl stimulation) read?
Answer: does not exhibit the response to KCl

Question: How did the “increase in luminescence intensity by KCl stimulation” value (hippocampal nerve cells; fusion protein 1 expressed in nerve cells, compared to before addition of KCl) turn out when `[Cl-].[K+]` [KCl, potassium chloride] was run?
Answer: approximately 6 times

Question: What about the “effect of stimulation on luminescence intensity” value (hippocampal nerve cells; nerve cells expressing fusion protein 5, 50 mM KCl, alone or with additive) of the same compound?
Answer: increases the luminescence intensity

Question: How did the “luminescence of split luciferase-actin probe” value (actin polymerization) turn out when `C/C1=C/C(=O)O[C@@H]2C[C@@H](CC[C@H](C)/C=C\C=C\CC1)O[C@@](O)([C@@H]1CSC(=O)N1)C2` [latrunculin A] was run?
Answer: decreased in a concentration-dependent manner

Question: What about the “polymerized actin (rhodamine-phalloidin staining)” value (polymerized actin) of the same compound?
Answer: decreased in a concentration-dependent manner

— patent publication US20110154513A1, “PROBE FOR VISUALIZING NEURAL ACTIVITY” (University of Toyama, priority 2008, published 2011)
